# Results published in patent publication US20220257764A1, “USE OF DIKETONE COMPOUND IN PHOTODYNAMIC THERAPY OR DIAGNOSIS” (BEIJING WHOLESOMETECH CO., LTD., priority 2019, published 2022).
# Where two headings read alike, the source gives them in different places.
# Columns and labels:
# Assay type in all cases: cell-based
# [1] = tested on: human immortalized keratinocyte (Hacat cells); test: MTT cytotoxicity to normal cells, Experimental Example 5; settings: given under red light, 630-650 nm, 110 mW/cm^2, 900 s, 3 h incubation
# Protocol: (1) Logarithmic phase cells were collected, the concentration of a cell suspension was adjusted, the cell suspension was added to a cell culture plate in a dose of 100 μL per well, and the cells were then added to a cell culture plate so that the density of the cells to be tested was adjusted to 1000-10000 wells (edge wells were filled with sterile PBS). […] Generally, the drug in 5 to 7 gradients was added in a dose of 100 μL per well, and 3 to 5 wells were set for each concentration of a drug. […] Cells in the experimental photosensitizer-light irradiation group were incubated for 15 min and then irradiated with light. […] After light irradiation, the cells were washed with PBS. […] After light irradiation, the cells were washed with PBS. […] If the drug could react with the MTT, centrifuging was carried out first, and then the culture solution was discarded and the cells were carefully washed twice or three times with PBS, and then the culture solution containing MTT was added. (6) The culture was terminated and the culture solution in the wells was carefully removed. (7) Dimethyl sulfoxide was added in a dose of 150 μL per well, and the plate was then shaken on a shaker at a low speed for 10 min to fully dissolve crystals. The absorbance at OD 490 nm of each well was measured with enzyme-linked immunoassay. […]
# Escherichia coli = test: Inhibitory effect on bacteria (colony counting), under light and in the dark
# Protocol: A single Escherichia coli colony was transferred from a solid Luria Bertani (LB) agar plate to 5 ml liquid LB medium and incubated at 37° C. for 12 h. Bacteria were collected by centrifugation (7000 rpm, 1 min) and washed with PBS buffer three times. The supernatant was discarded, and the remaining Escherichia coli cells were resuspended in the PBS buffer. The bacterial suspension was adjusted to make its optical density (OD600) to 1.0. The suspension was then diluted (5 times) with PBS buffer. The diluted Escherichia coli cell suspension was incubated in the dark at 37° C. for 15 min in the presence of a photosensitizer (diketone compound) solution with a concentration of 60 mM, and then irradiated for 200 s under a 15 mW/cm^2 laser light (with a wavelength of 450 nm to 480 nm and in the final light dose of about 3 J cm^2), and after the irradiation the bacterial suspension was serially diluted (10^4 times) with PBS buffer. 100 μL of the diluted bacterial Escherichia coli cell was dispersed on a solid LB agar plate and incubated at 37° C. for 12 h to 16 h, and colonies formed were counted. In the meanwhile, a treated group in the dark and an untreated group in the dark were set; the inhibition rate was determined by dividing the number of colony forming units (cfu) killed in the treated group under light or the treated group in the dark by the number of colony forming units (cfu) killed in the untreated group in the dark.
# Hela cells = test: MTT toxicity to tumor cells, under light and in the dark; settings: Homo sapiens
# Protocol: (§1) In this experimental example, the toxicity of the compound to tumor cells was tested by an MTT method including the following specific steps.
# (§2) (1) Logarithmic cells were collected, the concentration of a cell suspension was adjusted, the cell suspension was added to a cell culture plate in a dose of 100 μL per well, and the cells were then added to a cell culture plate so that the density of the cells to be tested was adjusted to 1000-10000 wells (edge wells were filled with sterile PBS).
# (§3) (2) The cells were incubated at 37° C. in the presence of 5% CO2 until the cells in a single layer covered the bottom of each well (96-well flat-bottom plate), and a drug in concentration gradients was added. Generally, the drug in 5 to 7 gradients was added in a dose of 100 μL per well, and 3 to 5 multi-wells were set.
# (§4) (3) The cells were randomly divided into treated groups under light and treated groups in the dark, incubated at 37° C. in the presence of 5% CO2 for 16 h to 48 h, and observed with an inverted microscope.
# (§5) (4) The cells were irradiated for 900 s with a laser having a wavelength of 450 nm to 480 nm (at an intensity of 110 mW/cm^2), and the final light dose was about 100 J/cm^2. After light irradiation, the cells were washed with PBS.
# (§6) (5) An MTT solution (5 mg/ml, 0.5% MTT) was added in a dose of 20 μL per well to further incubate the cells for 4 h. If the drug could react with the MTT, centrifuging was carried out first, and then the culture solution was discarded and the cells were carefully washed twice or three times with PBS, and then the culture solution containing MTT was added.
# (§7) (6) The culture was terminated and the culture solution in the wells was carefully removed.
# (§8) (7) Dimethyl sulfoxide was added in a dose of 150 μL per well, and the plate was then shaken on a shaker at a low speed for 10 min to fully dissolve crystals. The absorbance at OD 490 nm of each well was measured with enzyme-linked immunoassay.
# (§9) (8) Zero adjustment wells (medium, MTT, dimethyl sulfoxide) and control wells (cells, dissolving media of the same concentration, culture solution, MTT, dimethyl sulfoxide) were set at the same time.
# SW480 colon cancer cells = test: as above; settings: Homo sapiens
# Protocol: as §1, §2, §3, §4, §5, §6, §7, §8, §9
# B16 melanoma cell = test: as above; settings: Mus musculus, under light, 450-480 nm laser, 110 mW/cm^2, 900 s
# Protocol: as §1, §2, §3, §4, §5, §6, §7, §8, §9
# [2] = read-out: Inhibition rate in the dark
# [3] = read-out: Inhibition rate under light
# [4] = SW480, under light, 450-480 nm laser, 110 mW/cm^2, 900 s
# [5] = 60 mM, 450-480 nm laser, 15 mW/cm^2, 200 s, read-out: Inhibition rate under light
# [6] = 60 mM, in the dark, read-out: Inhibition rate in the dark
# [7] = under light, 450-480 nm laser, 110 mW/cm^2, 900 s
SMILES,cytotoxicity to Hacat cells [1],inhibition at 60000 µM (Escherichia coli; [2]) [%],inhibition at 60000 µM (Escherichia coli; [3]) [%],IC50 (Hela cells; in the dark) [µM],IC50 (SW480 colon cancer cells; [4]) [µM],inhibition at 60000 µM (Escherichia coli; [5]) [%],inhibition at 60000 µM (Escherichia coli; [6]) [%],IC50 (Hela cells; [7]) [µM],IC50 (B16 melanoma cell) [µM],"IC50 (SW480 colon cancer cells; SW480, in the dark) [µM]"
"NCC(=O)CCC(=O)O [ALA, 5-α aminolevulinic acid, reference compound]",relatively high cytotoxicity,,,,,,,,,
CCC(=O)C(=O)CC [BJMU-201],,4.9,58,59.9 ± 9.9,63.9 ± 10.5,,,,,
CCCC(=O)C(C)=O [BJMU-202],,,,,2.5 ± 0.5,90 ± 3,8.6,2.6 ± 0.6,2.9 ± 0.1,
CC(=O)C(=O)CBr [BJMU-203],,,,,3.1 ± 0.5,93,4.5,2.8 ± 1.1,2.7 ± 0.9,
CCCCC(=O)C(C)=O [BJMU-205],,,,,6.4 ± 1.9,80,2,5.7 ± 1.7,6.6 ± 1.8,
CC(=O)C(=O)CC(C)C [BJMU-206],,,,,144 ± 31.9,46,11.5,141 ± 37.4,144 ± 32.5,
O=C(O)C(=O)c1ccccc1 [BJMU-207],,,,,99.2 ± 25.7,64,7.3,93.3 ± 20.3,96.6 ± 26.3,
CC(=O)C(=O)O [BJMU-208],,,,,173 ± 10.8,45,8,162 ± 10.1,174 ± 10.9,
O=C(C(=O)c1ccccc1)c1ccccc1 [BJMU-209],,9.5,26,8200 ± 530,7800 ± 480,,,,,
O=C(C(=O)c1ccncc1)c1ccncc1 [BJMU-210],,,,,9600 ± 600,24,6.4,9900 ± 700,9800 ± 700,
O=C(C(=O)c1ccc(Br)cc1)c1ccc(Br)cc1 [BJMU-211],,,,,3200 ± 230,,,,,95000 ± 21300
O=C(C(=O)c1ccc(F)cc1)c1ccc(F)cc1 [BJMU-212],,,,,2800 ± 210,,,,,99000 ± 15800
COc1ccc(C(=O)C(=O)c2ccc(OC)cc2)cc1 [BJMU-213],,,,6400 ± 400,6600 ± 370,,,,,
O=C(C(=O)c1ccco1)c1ccco1 [BJMU-214],,,,,8900 ± 500,23,5.6,8800 ± 480,9000 ± 510,
